Measured values published in patent US20130165428A1, “XANTHINE DERIVATIVES, THE PREPARATION THEREOF AND THEIR USE AS PHARMACEUTICAL COMPOSITIONS” (Boehringer Ingelheim Pharma GmbH & Co. KG, priority 2001, published 2013).

Target: T1, DPP-IV (Homo sapiens, UniProt P27487)
T1 construct: an extract of the human colon carcinoma cell line Caco-2 is used as the DPP IV source; host or cells: Caco-2 (differentiated to induce DPP-IV expression), Nonidet-P40 solubilised extract
T1 sequence (P27487 whole entry): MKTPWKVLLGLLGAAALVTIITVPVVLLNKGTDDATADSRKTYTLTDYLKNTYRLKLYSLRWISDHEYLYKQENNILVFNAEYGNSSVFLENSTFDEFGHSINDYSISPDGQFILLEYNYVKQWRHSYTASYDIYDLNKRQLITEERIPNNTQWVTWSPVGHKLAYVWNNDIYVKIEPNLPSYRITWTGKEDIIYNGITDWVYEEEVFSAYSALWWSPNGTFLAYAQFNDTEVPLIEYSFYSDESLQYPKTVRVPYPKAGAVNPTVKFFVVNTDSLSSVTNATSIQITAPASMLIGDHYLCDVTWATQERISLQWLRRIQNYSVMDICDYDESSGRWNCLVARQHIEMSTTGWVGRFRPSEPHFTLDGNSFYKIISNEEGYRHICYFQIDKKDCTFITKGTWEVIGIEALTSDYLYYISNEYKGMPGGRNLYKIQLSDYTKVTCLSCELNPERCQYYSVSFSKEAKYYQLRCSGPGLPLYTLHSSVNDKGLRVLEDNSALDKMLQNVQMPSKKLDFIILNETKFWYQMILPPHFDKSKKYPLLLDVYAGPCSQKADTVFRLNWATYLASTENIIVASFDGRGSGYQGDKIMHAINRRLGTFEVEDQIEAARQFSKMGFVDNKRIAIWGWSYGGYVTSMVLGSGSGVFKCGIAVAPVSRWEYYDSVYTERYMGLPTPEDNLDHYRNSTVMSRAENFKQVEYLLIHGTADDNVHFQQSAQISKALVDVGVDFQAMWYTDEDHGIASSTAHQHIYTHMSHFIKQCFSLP
Experiment: DPP-IV assay with extract of Caco-2 cells as DPP IV source
Format: biochemical
Details: extract of human colon carcinoma cell line Caco-2 as DPP IV source, substrate AFC 100 μM, 60 minutes, ambient temperature; read-out: DPP IV inhibition IC50
Experimental: This cell line was obtained from the American Type Culture Collection (ATCC HTB 37). […] The cell extract was obtained from cells solubilised in a buffer (10 mM Tris HCl, 0.15 M NaCl, 0.04 t.i.u. aprotinin, 0.5% Nonidet-P40, pH 8.0) by centrifugation at 35,000 g for 30 minutes at 4° C. (to remove cell debris).
The DPP-IV assay was carried out as follows:
50 μl of substrate solution (AFC; AFC is amido-4-trifluoromethylcoumarin), final concentration 100 μM, were placed in black microtitre plates. 20 μl of assay buffer (final concentrations 50 mM Tris HCl pH 7.8, 50 mM NaCl, 1% DMSO) was pipetted in. The reaction was started by the addition of 30 μl of solubilised Caco-2 protein (final concentration 0.14 μg of protein per well). The test substances under investigation were typically added prediluted to 20 μl, while the volume of assay buffer was then reduced accordingly. The reaction was carried out at ambient temperature, the incubation period was 60 minutes. […] Dummy values (corresponding to 0% activity) were obtained in mixtures with no Caco-2 protein (volume replaced by assay buffer), control values (corresponding to 100% activity) were obtained in mixtures without any added substance.
In the case of `CC(C)=CCn1c(N2CCCC(N)C2)nc2c1c(=O)n(C)c(=O)n2CCc1ccc(F)cc1` (stereo not drawn) [2(77), 1-methyl-3-[2-(4-fluoro-phenyl)-ethyl]-7-(3-methyl-2-buten-1-yl)-8-(3-amino-piperidin-1-yl)-xanthine], the IC50 is reported as 22 nM. In the case of `CC(C)=CCn1c(N2CCC[C@H](N)C2)nc2c1c(=O)n(CCc1cccc(O)c1)c(=O)n2C` [2(22), 1-[2-(3-hydroxy-phenyl)-ethyl]-3-methyl-7-(3-methyl-2-buten-1-yl)-8-((S)-3-amino-piperidin-1-yl)-xanthine], the IC50 is reported as 66 nM. `CC(C)=CCn1c(N2CCCC(N)C2)nc2c1c(=O)n(CC(=O)c1cccc(OCC#N)c1)c(=O)n2C` (stereo not drawn) [2(88), 1-[2-(3-cyanomethoxy-phenyl)-2-oxo-ethyl]-3-methyl-7-(3-methyl-2-buten-1-yl)-8-(3-amino-piperidin-1-yl)-xanthine] gave an IC50 of 6 nM. Molecule `CC(C)=CCn1c(N2CCCC(N)C2)nc2c1c(=O)n(CCc1cccc(C)c1)c(=O)n2C` (stereo not drawn) [1(55), 1-[2-(3-methyl-phenyl)-ethyl]-3-methyl-7-(3-methyl-2-buten-1-yl)-8-(3-amino-piperidin-1-yl)-xanthine] has an IC50 of 142 nM. `CC(C)=CCn1c(N2CCCNCC2)nc2c1c(=O)n(CCc1ccccc1)c(=O)n2C` [1(97), 1-(2-phenyl-ethyl)-3-methyl-7-(3-methyl-2-buten-1-yl)-8-(homopiperazin-1-yl)-xanthine] gave an IC50 of 212 nM. In the case of `CC(C)=CCn1c(N[C@@H]2CCCC[C@@H]2N)nc2c1c(=O)n(C)c(=O)n2C` (relative stereo) [1(6), 1,3-dimethyl-7-(3-methyl-2-buten-1-yl)-8-[(cis-2-amino-cyclohexyl)amino]-xanthine], the IC50 is reported as 230 nM. `CC(C)=CCn1c(N2CCCC(N)C2)nc2c1c(=O)n(CCN(C)C)c(=O)n2C` (stereo not drawn) [1(30), 1-[2-(dimethylamino)ethyl]-3-methyl-7-(3-methyl-2-buten-1-yl)-8-(3-amino-piperidin-1-yl)-xanthine] showed an IC50 of 2050 nM. In the case of `CC(C)=CCn1c(N2CCCC(N)C2)nc2c1c(=O)n(CCO)c(=O)n2C` (stereo not drawn) [1(27), 1-(2-hydroxyethyl)-3-methyl-7-(3-methyl-2-buten-1-yl)-8-(3-amino-piperidin-1-yl)-xanthine], the IC50 is reported as 125 nM. For `CC(C)=CCn1c(N2CCCC(N)C2)nc2c1c(=O)n(CCc1ccccn1)c(=O)n2C` (stereo not drawn) [1(60), 1-[2-(pyridin-2-yl)-ethyl]-3-methyl-7-(3-methyl-2-buten-1-yl)-8-(3-amino-piperidin-1-yl)-xanthine], the IC50 was 57 nM. Work on `Cn1c(=O)c2c(nc(N3CCCC(N)C3)n2Cc2ccccc2)n(CCc2ccccc2)c1=O` (stereo not drawn) [1(70), 1-methyl-3-(2-phenyl-ethyl)-7-benzyl-8-(3-amino-piperidin-1-yl)-xanthine] yielded an IC50 of 32 nM. `CC(C)=CCn1c(N2CCCC(N)C2)nc2c1c(=O)n(Cc1cccc3ccccc13)c(=O)n2C` (stereo not drawn) [2(127), 1-[(1-naphthyl)methyl]-3-methyl-7-(3-methyl-2-buten-1-yl)-8-(3-amino-piperidin-1-yl)-xanthine] gave an IC50 of 22 nM. In the case of `CC(C)=CCn1c(N2CCCC(N)C2)nc2c1c(=O)[nH]c(=O)n2C` (stereo not drawn) [1(15), 3-methyl-7-(3-methyl-2-buten-1-yl)-8-(3-amino-piperidin-1-yl)-xanthine], the IC50 is reported as 624 nM. Molecule `Cn1c(=O)c2c(nc(N3CCCC(N)C3)n2Cc2ccccc2C#N)n(C)c1=O` (stereo not drawn) [1(121), 1,3-dimethyl-7-(2-cyano-benzyl)-8-(3-amino-piperidin-1-yl)-xanthine] has an IC50 of 10 nM. For `CC(C)=CCn1c(N2CCCC(N)C2)nc2c1c(=O)n(Cc1ccccn1)c(=O)n2C` (stereo not drawn) [2(113), 1-[(pyridin-2-yl)methyl]-3-methyl-7-(3-methyl-2-buten-1-yl)-8-(3-amino-piperidin-1-yl)-xanthine], the IC50 was 20 nM. Work on `COCCn1c(=O)c2c(nc(N3CCCC(N)C3)n2CC=C(C)C)n(C)c1=O` (stereo not drawn) [1(28), 1-(2-methoxyethyl)-3-methyl-7-(3-methyl-2-buten-1-yl)-8-(3-amino-piperidin-1-yl)-xanthine] yielded an IC50 of 166 nM. `C#CCOc1cccc(C(=O)Cn2c(=O)c3c(nc(N4CCCC(N)C4)n3CC=C(C)C)n(C)c2=O)c1` (stereo not drawn) [2(85), 1-{2-oxo-2-[3-(2-propyn-1-yloxy)-phenyl]-ethyl}-3-methyl-7-(3-methyl-2-buten-1-yl)-8-(3-amino-piperidin-1-yl)-xanthine] gave an IC50 of 17 nM. `CC(C)=CCn1c(N2CCCC(N)C2)nc2c1c(=O)n(CC(=O)c1ccccc1N)c(=O)n2C` (stereo not drawn) [2(136), 1-[2-(2-amino-phenyl)-2-oxo-ethyl]-3-methyl-7-(3-methyl-2-buten-1-yl)-8-(3-amino-piperidin-1-yl)-xanthine] showed an IC50 of 3 nM. With `Cn1c(=O)c2c(nc(N3CCCC(N)C3)n2Cc2ccccc2)n(CC(=O)O)c1=O` (stereo not drawn) [Example 6, 1-methyl-3-carboxymethyl-7-benzyl-8-(3-amino-piperidin-1-yl)-xanthine] the IC50 was 55 nM. In the case of `CCn1c(=O)c2c(nc(N3CCCC(N)C3)n2CC=C(C)C)n(C)c1=O` (stereo not drawn) [1(16), 1-ethyl-3-methyl-7-(3-methyl-2-buten-1-yl)-8-(3-amino-piperidin-1-yl)-xanthine], the IC50 is reported as 78 nM.

Same assay, conditions: read-out: DPP IV inhibition IC50
For `CC(C)=CCn1c(N(C)CC(N)C(=O)N(C)C)nc2c1c(=O)n(C)c(=O)n2C` (stereo not drawn) [2(131), 1,3-dimethyl-7-(3-methyl-2-buten-1-yl)-8-[N-(2-amino-3-dimethylamino-3-oxo-propyl)-N-methyl-amino]-xanthine×trifluoroacetic acid], the IC50 was 127 nM.

System: rats
Experiment: Tolerability after oral administration in rats
Format: in vivo
Details: oral administration of 30 mg/kg
With `Cn1c(=O)c2c(nc(N3CCCC(N)C3)n2Cc2ccccc2)n(C)c1=O` (stereo not drawn) [Example 1(2), 1,3-dimethyl-7-benzyl-8-(3-amino-piperidin-1-yl)-xanthine] the “toxic side effects / tolerability” value was “no toxic side effects could be detected”.

System: not given
Experiment: not given
Details: not given
With `CC(C)=CCn1c(N2CCC[C@H](N)C2)nc2c1c(=O)n(CCc1cccc(O)c1)c(=O)n2C` [2(22), 1-[2-(3-hydroxy-phenyl)-ethyl]-3-methyl-7-(3-methyl-2-buten-1-yl)-8-((S)-3-amino-piperidin-1-yl)-xanthine] the melting point was 168 to 170 °C. With `CC(C)=CCn1c(N2CCCC(N)C2)nc2c1c(=O)n(CCc1ccccn1)c(=O)n2C` (stereo not drawn) [1(60), 1-[2-(pyridin-2-yl)-ethyl]-3-methyl-7-(3-methyl-2-buten-1-yl)-8-(3-amino-piperidin-1-yl)-xanthine] the melting point was 117 to 120 °C. With `Cn1c(=O)c2c(nc(N3CCCC(N)C3)n2Cc2ccccc2)n(CC(=O)O)c1=O` (stereo not drawn) [Example 6, 1-methyl-3-carboxymethyl-7-benzyl-8-(3-amino-piperidin-1-yl)-xanthine] the melting point was 212 to 215 °C.
